Measurements from US4774078A, “Stable antiplaque dentifrice based on hexetidine, zinc ion and fluoride” (Colgate-Palmolive Company, priority 1986, dated 1988).
Where two headings read alike, the source gives them in different places.

What was measured:
[1] = system: Strep mutans; test: MIC (minimum inhibitory concentration) with Strep. mutans; assay type: cell-based; settings: active ingredient alone, water/alcohol/propylene glycol mixture, total bacterial inhibition
Source text: Hexetidine is a broad-spectrum, water-insoluble antibacterial, having the chemical formula [drawing 1] 5-amino-1,3-bis(2 ethylhexyl)-5-methyl-hexahydropyrimidine. It has been used as an antibacterial agent in antiplaque and antigingivitis oral compositions as previously discussed. However, hexetidine is a bitter-tasting chemical, thereby limiting its use to low levels in order to minimize its bitter taste, which in turn limits its therapeutic activity.
Table I gives the MIC (minimum inhibitory concentration) results with Strep. mutans.
All the active ingredients (AI) are in water/alcohol/propylene glycol mixtures.
The FIC (Fractional Inhibitory Concentration), has been calculated from the MIC data for each ratio.
A minimum concentration of 0.60 ppm hexetidine alone is needed for total bacterial inhibition, and a minimum concentration of 40 ppm of zinc++ alone is required for total bacterial inhibition; whereas a concentration of 0.12 ppm hexetidine in combination with 0.12 ppm zinc++ effects total bacterial inhibition. This increase in the antibacterial activity of the hexetidine due to the presence of the zinc++ reduces the amount necessary to produce a therapeutic effect, and this minimizes the bitter taste associated with hexetidine.

[2] = cited from earlier work
[3] = Active ingredient stability of dentifrice after aging 9 weeks at 49° C.

Row | Molecule | MIC ([1]; Streptococcus mutans, read-out: MIC) [µg/mL] | MIC [1] [ppm] | water solubility [2] | % Available After Aging ([3]; in dentifrices of Examples 1 and 2 (sodium lauryl sulfate), pH 5-6, 90720 min) [%] | % Available After Aging ([3]; in dentifrices of Examples 3 and 4 (polyoxyethylene (20) sorbitan monoisostearate), pH 5.0-6.0, 90720 min) [%] | MIC ([1]; listed as zinc++) [ppm]
1 | CCCCC(CC)CN1CN(CC(CC)CCCC)CC(C)(N)C1 (stereo not shown) [Hexetidine, 5-amino-1,3-bis(2 ethylhexyl)-5-methyl-hexahydropyrimidine] | 0.6 | 0.60 | water-insoluble | 65 | 92 | –
2 | Zinc++ | – | 40.00 | – | – | – | 40
